System: MV-4-11 cells
Assay: Gene expression microarray analysis (Affymetrix PrimeView) and GSEA
Format: cell-based, human
Set-up: RFU PODN (11730768_x_at) / Fold change /veh PODN (11730768_x_at) / RFU LINC00158 (11744669_a_at) / Fold change /veh LINC00158 (11744669_a_at) / RFU DUSP10 (11751237_a_at) / Fold change /veh DUSP10 (11751237_a_at) / RFU ID3 (11757404_x_at) / Fold change /veh ID3 (11757404_x_at) / RFU PLEKHG5 (11737974_s_at) / Fold change /veh PLEKHG5 (11737974_s_at) / RFU LRRC4B (11730491_at) / Fold change /veh LRRC4B (11730491_at) / RFU GIMAP4 (11747438_a_at) / Fold change /veh GIMAP4 (11747438_a_at) / RFU KRT8 (11758183_x_at) / Fold change /veh KRT8 (11758183_x_at) / RFU CNN1 (11734310_a_at) / Fold change /veh CNN1 (11734310_a_at) / RFU VPS37D (11726825_at) / Fold change /veh VPS37D (11726825_at) / RFU C10orf10 (11716522_x_at) / Fold change /veh C10orf10 (11716522_x_at) / RFU KIR2DL2 /// KIR2DL4 /// KIR2DL5A /// KIR2DL5B /// KIR2DS1 /// KIR2DS2 /// KIR2DS3 /// KIR2DS4 /// KIR3DL3 /// KIR3DL3 /// KIR3DS1 (11738374_at) / Fold change /veh KIR2DL2 /// KIR2DL4 /// KIR2DL5A /// KIR2DL5B /// KIR2DS1 /// KIR2DS2 /// KIR2DS3 /// KIR2DS4 /// KIR3DL3 /// KIR3DL3 /// KIR3DS1 (11738374_at) / RFU C1QL1 (11718748_at) / Fold change /veh C1QL1 (11718748_at) / RFU TMPRSS4 (11747572_a_at) / Fold change /veh TMPRSS4 (11747572_a_at) / RFU HAMP (11756126_x_at) / Fold change /veh HAMP (11756126_x_at) / RFU RNFT2 (11725882_a_at) / Fold change /veh RNFT2 (11725882_a_at) / RFU NR4A2 (11747474_a_at) / Fold change /veh NR4A2 (11747474_a_at) / RFU ABCC12 (11746883_a_at) / Fold change /veh ABCC12 (11746883_a_at) / RFU TMEM136 (11760407_x_at) / Fold change /veh TMEM136 (11760407_x_at) / RFU CLDN22 /// WWC2 (11732394_at) / Fold change /veh CLDN22 /// WWC2 (11732394_at) / RFU HLA-DPB1 (11760878_x_at) / Fold change /veh HLA-DPB1 (11760878_x_at) / RFU SPINT1 (11716480_a_at) / Fold change /veh SPINT1 (11716480_a_at) / RFU GAP43 (11754022_s_at) / Fold change /veh GAP43 (11754022_s_at) / RFU A4GNT (11735810_at) / Fold change /veh A4GNT (11735810_at) / RFU PRB3 (11715151_x_at) / Fold change /veh PRB3 (11715151_x_at) / RFU TUBB4B (11761932_at) / Fold change /veh TUBB4B (11761932_at) / RFU CAPN14 (11732068_a_at) / Fold change /veh CAPN14 (11732068_a_at) / RFU TMCC2 (11721928_a_at) / Fold change /veh TMCC2 (11721928_a_at) / RFU IRGQ (11745062_a_at) / Fold change /veh IRGQ (11745062_a_at) / RFU FAM174B (11720279_a_at) / Fold change /veh FAM174B (11720279_a_at) / RFU TMPRSS4 (11748680_a_at) / Fold change /veh TMPRSS4 (11748680_a_at) / RFU FAM212B (11763350_a_at) / Fold change /veh FAM212B (11763350_a_at) / RFU PLEKHG5 (11743358_a_at) / Fold change /veh PLEKHG5 (11743358_a_at) / RFU ZSCAN30 (11745921_a_at) / Fold change /veh ZSCAN30 (11745921_a_at) / RFU CMKLR1 (11741424_a_at) / Fold change /veh CMKLR1 (11741424_a_at) / RFU LOC101060620 /// MAPK8IP1 (11723275_at) / Fold change /veh LOC101060620 /// MAPK8IP1 (11723275_at) / RFU SPTSSB (11747773_x_at) / Fold change /veh SPTSSB (11747773_x_at) / RFU PRSS12 (11739890_at) / Fold change /veh PRSS12 (11739890_at) / RFU BIN1 (11741810_x_at) / Fold change /veh BIN1 (11741810_x_at) / RFU WNT11 (11732464_a_at) / Fold change /veh WNT11 (11732464_a_at) / RFU C10orf10 (11716521_a_at) / Fold change /veh C10orf10 (11716521_a_at) / RFU C5orf56 (11738089_at) / Fold change /veh C5orf56 (11738089_at) / RFU CYB561 (11721691_x_at) / Fold change /veh CYB561 (11721691_x_at) / RFU ANKRD19P (11752326_a_at) / Fold change /veh ANKRD19P (11752326_a_at) / RFU OR2T12 /// OR2T33 /// OR2T8 (11738714_s_at) / Fold change /veh OR2T12 /// OR2T33 /// OR2T8 (11738714_s_at) / RFU VCAN (11748164_a_at) / Fold change /veh VCAN (11748164_a_at) / RFU JSRP1 (11732532_at) / Fold change /veh JSRP1 (11732532_at) / RFU KRTAP10-11 (11738290_x_at) / Fold change /veh KRTAP10-11 (11738290_x_at) / RFU MYO3A (11730013_a_at) / Fold change /veh MYO3A (11730013_a_at) / RFU EBF3 (11725865_a_at) / Fold change /veh EBF3 (11725865_a_at) / RFU CAMK2N1 (11719241_x_at) / Fold change /veh CAMK2N1 (11719241_x_at) / RFU C5orf56 (11738088_a_at) / Fold change /veh C5orf56 (11738088_a_at) / RFU OLFML3 (11715873_a_at) / Fold change /veh OLFML3 (11715873_a_at) / RFU LOC100653217 /// NTM (11731650_a_at) / Fold change /veh LOC100653217 /// NTM (11731650_a_at) / RFU MAPK11 (11762145_a_at) / Fold change /veh MAPK11 (11762145_a_at) / RFU FIZ1 (11724087_x_at) / Fold change /veh FIZ1 (11724087_x_at) / RFU OASL (11726364_x_at) / Fold change /veh OASL (11726364_x_at) / RFU SOX15 (11748057_x_at) / Fold change /veh SOX15 (11748057_x_at) / RFU CD79A (11719716_a_at) / Fold change /veh CD79A (11719716_a_at) / RFU HIST1H1D (11736915_at) / Fold change /veh HIST1H1D (11736915_at) / RFU CASKIN2 (11723855_a_at) / Fold change /veh CASKIN2 (11723855_a_at) / RFU LOC730098 (11760151_x_at) / Fold change /veh LOC730098 (11760151_x_at) / RFU OR4N2 (11742367_at) / Fold change /veh OR4N2 (11742367_at) / RFU PRRT2 (11749266_a_at) / Fold change /veh PRRT2 (11749266_a_at) / RFU SNX32 (11753110_a_at) / Fold change /veh SNX32 (11753110_a_at) / RFU CDHR5 (11726645_a_at) / Fold change /veh CDHR5 (11726645_a_at) / RFU RCAN1 (11760418_a_at) / Fold change /veh RCAN1 (11760418_a_at) / RFU FAM167A (11723789_a_at) / Fold change /veh FAM167A (11723789_a_at) / RFU FAM26E (11764081_at) / Fold change /veh FAM26E (11764081_at) / RFU ISYNA1 (11749810_s_at) / Fold change /veh ISYNA1 (11749810_s_at) / RFU ACY1 (11761880_at) / Fold change /veh ACY1 (11761880_at) / RFU 11764098_at / Fold change /veh 11764098_at / RFU SAMD14 (11745864_x_at) / Fold change /veh SAMD14 (11745864_x_at) / RFU NPB (11741838_a_at) / Fold change /veh NPB (11741838_a_at) / RFU TMPRSS6 (11731388_a_at) / Fold change /veh TMPRSS6 (11731388_a_at) / RFU KRTAP10-2 (11738614_at) / Fold change /veh KRTAP10-2 (11738614_at) / RFU ARHGAP8 /// PRR5-ARHGAP8 (11727945_x_at) / Fold change /veh ARHGAP8 /// PRR5-ARHGAP8 (11727945_x_at) / RFU KRTAP5-7 /// NADSYN1 (11734609_at) / Fold change /veh KRTAP5-7 /// NADSYN1 (11734609_at) / RFU RASL12 (11751679_a_at) / Fold change /veh RASL12 (11751679_a_at) / RFU CDKN2B (11736163_a_at) / Fold change /veh CDKN2B (11736163_a_at) / RFU PRF1 (11729649_at) / Fold change /veh PRF1 (11729649_at) / RFU, ZNF638 /// ZNF638-IT1 / Fold change vs veh, ZNF638 /// ZNF638-IT1 / RFU, PANK3 / Fold change vs veh, PANK3 / RFU, SH3YL1 / Fold change vs veh, SH3YL1 / RFU, ZEB2 / Fold change vs veh, ZEB2 / RFU, NRIP1 / Fold change vs veh, NRIP1 / RFU, PTTG1IP / Fold change vs veh, PTTG1IP / RFU, CAPN2 / Fold change vs veh, CAPN2 / RFU, MED14 / Fold change vs veh, MED14 / RFU, SNORA58 / Fold change vs veh, SNORA58 / RFU, C1orf63 / Fold change vs veh, C1orf63 / RFU, LRRFIP1 / Fold change vs veh, LRRFIP1 / RFU, NDUFAF7 / Fold change vs veh, NDUFAF7 / RFU, SLC12A2 / Fold change vs veh, SLC12A2 / RFU, IBTK / Fold change vs veh, IBTK / RFU, ESF1 / Fold change vs veh, ESF1 / Fold change vs veh, TMEM50B / RFU, TAOK1 / Fold change vs veh, TAOK1 / RFU, ACBD3 / Fold change vs veh, ACBD3 / RFU, TMA16 / Fold change vs veh, TMA16 / RFU, RWDD3 / Fold change vs veh, RWDD3 / RFU, BCAT1 / Fold change vs veh, BCAT1 / RFU, EDEM3 / Fold change vs veh, EDEM3 / RFU, TMEM33 / Fold change vs veh, TMEM33 / RFU, WDR75 / Fold change vs veh, WDR75 / RFU, AHCTF1 / Fold change vs veh, AHCTF1 / RFU, TFRC / Fold change vs veh, TFRC / RFU, ZDHHC17 / Fold change vs veh, ZDHHC17 / RFU, NOM1 / Fold change vs veh, NOM1 / RFU, ARL8B / Fold change vs veh, ARL8B / RFU, ZBTB11 / Fold change vs veh, ZBTB11 / RFU, TAMM41 / Fold change vs veh, TAMM41 / RFU, KIAA1704 /// LOC100996395 / Fold change vs veh, KIAA1704 /// LOC100996395 / RFU, ING1 / Fold change vs veh, ING1 / RFU, TRMT61B / Fold change vs veh, TRMT61B / RFU, FUBP3 / Fold change vs veh, FUBP3 / RFU, TP53 / Fold change vs veh, TP53 / RFU, TNKS2 / Fold change vs veh, TNKS2 / RFU, ZFP14 / Fold change vs veh, ZFP14 / RFU, ACTR2 / Fold change vs veh, ACTR2 / RFU, PPP3R1 / Fold change vs veh, PPP3R1 / RFU, PIK3R1 / Fold change vs veh, PIK3R1 / RFU, HNRNPA1 / Fold change vs veh, HNRNPA1 / RFU, RNF170 / Fold change vs veh, RNF170 / RFU, ZNF28 / Fold change vs veh, ZNF28 / RFU, RNGTT / Fold change vs veh, RNGTT / RFU, OGT / Fold change vs veh, OGT / RFU, BRD1 / Fold change vs veh, BRD1 / RFU, MARS / Fold change vs veh, MARS / RFU, ZNF655 / Fold change vs veh, ZNF655 / RFU, FAHD1 / Fold change vs veh, FAHD1 / RFU, BDP1 / Fold change vs veh, BDP1 / RFU, LRRCC1 / Fold change vs veh, LRRCC1 / RFU, ARID1A / Fold change vs veh, ARID1A / RFU, ZNF146 / Fold change vs veh, ZNF146 / RFU, ZNF330 / Fold change vs veh, ZNF330 / RFU, GPN3 / Fold change vs veh, GPN3 / RFU, C9orf123 / Fold change vs veh, C9orf123 / RFU, N4BP2L2 / Fold change vs veh, N4BP2L2 / RFU, ARFIP1 / Fold change vs veh, ARFIP1 / RFU, FAM179B / Fold change vs veh, FAM179B / RFU, BCL10 / Fold change vs veh, BCL10 / RFU, UHRF1BP1L / Fold change vs veh, UHRF1BP1L / RFU, BET1 / Fold change vs veh, BET1 / RFU, CNOT2 / Fold change vs veh, CNOT2 / RFU, ZNF268 / Fold change vs veh, ZNF268 / Fold change vs veh, ZNF507 / RFU, DGCR2 / Fold change vs veh, DGCR2 / RFU, WDSUB1 / Fold change vs veh, WDSUB1 / Fold change vs veh, HSP90B1 /// MIR3652 / RFU, ADSS / Fold change vs veh, ADSS / RFU, GK / Fold change vs veh, GK / RFU, ZNF148 / Fold change vs veh, ZNF148 / RFU, TAF9 / Fold change vs veh, TAF9 / RFU, SLC1A5 / Fold change vs veh, SLC1A5 / RFU, SLMO2 / Fold change vs veh, SLMO2 / RFU, ABCC4 / Fold change vs veh, ABCC4 / RFU, LOC101060439 /// RAP1B / Fold change vs veh, LOC101060439 /// RAP1B / RFU, RFX7 / Fold change vs veh, RFX7 / RFU, GTPBP10 / Fold change vs veh, GTPBP10 / RFU, CNEP1R1 / Fold change vs veh, CNEP1R1 / RFU, BIVM-ERCC5 /// ERCC5 / Fold change vs veh, BIVM-ERCC5 /// ERCC5 / RFU, ILF3 / Fold change vs veh, ILF3 / RFU 11762660_at / Fold change /veh 11762660_at / RFU VCAN (11757783_s_at) / Fold change /veh VCAN (11757783_s_at) / RFU DDX43 (11728927_at) / Fold change /veh DDX43 (11728927_at) / RFU KRT8 (11758188_x_at) / Fold change /veh KRT8 (11758188_x_at) / RFU NKD1 (11759106_at) / Fold change /veh NKD1 (11759106_at) / RFU SRD5A1 (11742802_a_at) / Fold change /veh SRD5A1 (11742802_a_at) / RFU TPSAB1 /// TPSB2 (11721975_s_at) / Fold change /veh TPSAB1 /// TPSB2 (11721975_s_at) / RFU GSTM3 (11746129_a_at) / Fold change /veh GSTM3 (11746129_a_at) / RFU IL23R (11737362_x_at) / Fold change /veh IL23R (11737362_x_at) / RFU TMEM51 (11727254_a_at) / Fold change /veh TMEM51 (11727254_a_at) / RFU PIWIL2 (11732686_x_at) / Fold change /veh PIWIL2 (11732686_x_at) / RFU ORM1 (11744905_x_at) / Fold change /veh ORM1 (11744905_x_at) / RFU CCDC152 (11743942_at) / Fold change /veh CCDC152 (11743942_at) / RFU ECM1 (11717891_a_at) / Fold change /veh ECM1 (11717891_a_at) / RFU IL23R (11748794_a_at) / Fold change /veh IL23R (11748794_a_at) / RFU TNFAIP8L3 (11732012_x_at) / Fold change /veh TNFAIP8L3 (11732012_x_at) / RFU MBOAT4 (11741988_at) / Fold change /veh MBOAT4 (11741988_at) / RFU 11764193_at / Fold change /veh 11764193_at / RFU TMEM53 (11763286_at) / Fold change /veh TMEM53 (11763286_at) / RFU MAGEB2 (11727129_at) / Fold change /veh MAGEB2 (11727129_at) / RFU TMEM200A (11744735_a_at) / Fold change /veh TMEM200A (11744735_a_at) / RFU CCDC152 (11751479_a_at) / Fold change /veh CCDC152 (11751479_a_at) / RFU FAM211A (11726209_a_at) / Fold change /veh FAM211A (11726209_a_at) / RFU RGS16 (11746705_a_at) / Fold change /veh RGS16 (11746705_a_at) / RFU VCAN (11755009_s_at) / Fold change /veh VCAN (11755009_s_at) / RFU RHOB (11743442_s_at) / Fold change /veh RHOB (11743442_s_at) / RFU RGS16 (11720943_a_at) / Fold change /veh RGS16 (11720943_a_at) / RFU RGS16 (11720944_at) / Fold change /veh RGS16 (11720944_at) / RFU, VPS4B / Fold change vs veh, VPS4B / RFU, CREB1 / Fold change vs veh, CREB1 / RFU, DNAJC13 / Fold change vs veh, DNAJC13 / RFU, GNAQ / Fold change vs veh, GNAQ / RFU, CDK5R1 / Fold change vs veh, CDK5R1 / RFU, ZRANB3 / Fold change vs veh, ZRANB3 / RFU, CUL4A / Fold change vs veh, CUL4A / RFU, CCNY / Fold change vs veh, CCNY / RFU, UFL1 / Fold change vs veh, UFL1 / RFU, COG3 / Fold change vs veh, COG3 / RFU, DIAPH2 / Fold change vs veh, DIAPH2 / RFU, SKA2 / Fold change vs veh, SKA2 / RFU, AFF3 / Fold change vs veh, AFF3 / RFU, LMF1 / Fold change vs veh, LMF1 / RFU, IPO11 / Fold change vs veh, IPO11 / RFU, DFFB / Fold change vs veh, DFFB / RFU, FOXP1 / Fold change vs veh, FOXP1 / RFU, CARD8 / Fold change vs veh, CARD8 / RFU, STRN3 / Fold change vs veh, STRN3 / RFU, ADK / Fold change vs veh, ADK / RFU, RASSF2 / Fold change vs veh, RASSF2 / RFU, WIPF1 / Fold change vs veh, WIPF1 / RFU, LARP1B / Fold change vs veh, LARP1B / RFU, RASA1 / Fold change vs veh, RASA1 / RFU, RB1 / Fold change vs veh, RB1 / RFU, PPFIA1 / Fold change vs veh, PPFIA1 / RFU, MAT2A / Fold change vs veh, MAT2A / RFU, CCT5 / Fold change vs veh, CCT5 / RFU, WDR92 / Fold change vs veh, WDR92 / RFU, CUX1 / Fold change vs veh, CUX1 / RFU, TTC7A / Fold change vs veh, TTC7A / RFU, TMEM135 / Fold change vs veh, TMEM135 / RFU, DEPTOR / Fold change vs veh, DEPTOR / RFU, CPM / Fold change vs veh, CPM / RFU, DNAJB6 / Fold change vs veh, DNAJB6 / RFU, CACNA2D3 / Fold change vs veh, CACNA2D3 / RFU, DTX4 / Fold change vs veh, DTX4 / RFU, TFCP2 / Fold change vs veh, TFCP2 / RFU, GMCL1 /// GMCL1P1 / Fold change vs veh, GMCL1 /// GMCL1P1 / RFU, AEBP2 / Fold change vs veh, AEBP2 / RFU, SNHG1 /// SNORD22 /// SNORD25 /// SNORD26 /// SNORD27 /// SNORD28 /// SNORD29 /// SNORD31 / Fold change vs veh, SNHG1 /// SNORD22 /// SNORD25 /// SNORD26 /// SNORD27 /// SNORD28 /// SNORD29 /// SNORD31 / Fold change (Aza/veh), C12orf56 (ProbeSet 11735607_a_at) / Fold change (ACY-1035/veh), C12orf56 (ProbeSet 11735607_a_at) / Fold change (Aza/veh), FGFR1OP (ProbeSet 11751329_s_at) / Fold change (ACY-1035/veh), FGFR1OP (ProbeSet 11751329_s_at) / Fold change (Aza/veh), VPS36 (ProbeSet 11739960_a_at) / Fold change (ACY-1035/veh), VPS36 (ProbeSet 11739960_a_at) / RFU SYPL1 (11715823_x_at) / Fold change /veh SYPL1 (11715823_x_at) / RFU IGFBP7 (11715501_s_at) / Fold change /veh IGFBP7 (11715501_s_at) / RFU REEP3 (11722064_at) / Fold change /veh REEP3 (11722064_at) / RFU IGLL1 (11728026_x_at) / Fold change /veh IGLL1 (11728026_x_at): dose or concentration left out as unconfirmed
Conditions: MV-4-11 cells, 48 hours

SMILES: Nc1ccc(-c2cccs2)cc1NC(=O)c1ccc2c(c1)cc(C1CC1)n2CCN1CCOCC1 [ACY-1035]
- Fold change /veh MYO3A (11730013_a_at): 1.10

Reference: PMC5218480 (PLoS ONE, 2017)
